# Test results published in patent publication US20230190697A1, “METHODS FOR TREATING VIRAL INFECTIONS WITH NAFAMOSTAT” (priority 2020, published 2023).
# Several values for one entry are separate records, joined by “and”; a condition that tells them apart may be missing. Identical values can stand only once.
# How the values were obtained:
# SD rats [1] = assay: Pilot repeat-dose oral study in male SD rats (5 days); type: in vivo; conditions: 1000 mg/kg/day PO for 5 days
# Experimental: A pilot, non-GLP repeat-dose study was performed in which nafamostat mesylate (500 or 1000 mg/kg/day PO) was administered to 6 male SD rats per group for 5 days. […] One animal had petechiae on the lower third of the colon. […] Death in 2 of the animals followed seizure activity at about 1 h post-dose.
# hERG K+ channel = hERG K+ channel (Homo sapiens, UniProt Q12809); assay: cell-based; conditions: human, 50 µM
# hERG K+ channel, sequence (Q12809 whole entry): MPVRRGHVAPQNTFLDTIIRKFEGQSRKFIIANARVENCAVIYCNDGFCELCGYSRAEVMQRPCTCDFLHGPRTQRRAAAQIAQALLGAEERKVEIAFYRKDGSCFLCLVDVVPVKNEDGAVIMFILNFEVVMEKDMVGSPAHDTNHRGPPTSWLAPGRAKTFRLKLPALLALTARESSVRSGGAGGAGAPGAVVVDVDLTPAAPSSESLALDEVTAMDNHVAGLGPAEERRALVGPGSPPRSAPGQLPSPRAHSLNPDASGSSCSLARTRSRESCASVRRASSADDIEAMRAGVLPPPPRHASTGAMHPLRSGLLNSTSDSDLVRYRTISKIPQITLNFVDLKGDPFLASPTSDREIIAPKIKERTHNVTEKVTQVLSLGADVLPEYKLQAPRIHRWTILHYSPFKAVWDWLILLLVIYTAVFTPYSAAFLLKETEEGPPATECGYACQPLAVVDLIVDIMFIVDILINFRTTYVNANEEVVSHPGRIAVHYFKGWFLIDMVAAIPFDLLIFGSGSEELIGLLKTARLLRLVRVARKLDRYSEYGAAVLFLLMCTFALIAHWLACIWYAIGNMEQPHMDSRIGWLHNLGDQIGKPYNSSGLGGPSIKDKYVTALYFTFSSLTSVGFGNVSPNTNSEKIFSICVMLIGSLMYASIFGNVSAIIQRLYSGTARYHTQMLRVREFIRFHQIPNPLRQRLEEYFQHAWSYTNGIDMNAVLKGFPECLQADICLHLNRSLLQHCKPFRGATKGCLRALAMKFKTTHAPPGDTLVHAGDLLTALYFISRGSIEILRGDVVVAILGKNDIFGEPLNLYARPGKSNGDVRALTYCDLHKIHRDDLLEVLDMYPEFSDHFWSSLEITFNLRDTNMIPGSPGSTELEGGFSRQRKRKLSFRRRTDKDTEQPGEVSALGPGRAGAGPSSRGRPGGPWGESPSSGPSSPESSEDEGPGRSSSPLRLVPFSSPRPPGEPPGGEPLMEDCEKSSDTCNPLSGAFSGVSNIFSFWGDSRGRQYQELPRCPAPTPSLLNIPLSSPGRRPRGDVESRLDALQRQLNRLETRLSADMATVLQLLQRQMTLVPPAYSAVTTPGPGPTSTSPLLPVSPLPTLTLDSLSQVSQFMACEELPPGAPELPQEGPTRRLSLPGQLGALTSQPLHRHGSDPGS
# Experimental: Effects of nafamostat in an hERG assay: In an in vitro non-GLP screening study, effects of nafamostat on the hERG K^+ channel currents were evaluated in voltage-clamped human embryonic kidney cells at room temperature. […] A full ICH-Compliant hERG study and in vivo cardiovascular safety pharmacology study is be performed as part of the IND-enabling program.
# [2] = Pharmacokinetics of oral nafamostat mesylate solution in healthy male and female subjects; type: in vivo, human; conditions: human, oral, 200 mg dose level, individual subjects
# Experimental: Part 1: Single Ascending Dose Study. Male and female subjects aged 18 - 70 were administered a single dose of 50 mg nafamostat mesylate on day 1, 100 mg nafamostat mesylate on day 3 or 4, and 200 mg nafamostat mesylate on day 5, 6, or 7. Nafamostat mesylate was administered in the form of an oral solution. […]
# Part 2: Multiple Ascending Dose Study. Subjects were divided into 2 cohorts. Cohort 1 received an oral solution of 100 mg/mL nafamostat mesylate twice a day for 5 days with pharmacokinetic evaluations on each day. […] Safety evaluations continued for 48 hours after the last dose. After review and evidence of safety, Cohort 2 received an oral solution of 200 mg/mL nafamostat mesylate twice a day for 5 days with pharmacokinetic evaluations on each day. […] Safety evaluations continued for 48 hours after the last dose.
# Part 3: Single Fixed Dose Administered Twice Daily for 5 Days. Six subjects, different than the subjects from Parts 1 and 2, received an oral solution of 200 mg/mL nafamostat mesylate twice a day for 5 days. Blood samples were obtained at pre-dose (0 hr.) and at 0.5, 1, 2, 3, 4, 6, and 8 hours after the first dose on Day 1 and again after the first dose on Day 5. […]
# Oral solutions received by each subject were prepared by dissolving nafamostat mesylate in about 100 mL of EMETROL®/water and provided at a volume to deliver the indicated dosage. There was no placebo formulation.
# Nafamostat pharmacokinetics was evaluated at the 200 mg dose levels.
# SD rats [3] = assay: Single dose oral tolerability in SD rats (dose range-finding); type: in vivo
# Description: Oral Tolerability in Rats: The single dose tolerability to oral nafamostat was studied in SD rats in a non-GLP pilot dose range-finding study. […] All other animals survived to 7 days and had no abnormalities at necropsy.
compound,measurement,setting,value
"CS(=O)(=O)O.CS(=O)(=O)O.N=C(N)Nc1ccc(C(=O)Oc2ccc3cc(C(=N)N)ccc3c2)cc1 [nafamostat mesylate, 6-amidino-2-naphthyl p-guanidinobenzoate dimethanesulfonate]",necropsy finding in animals that died,SD rats [1],fluid filled stomach at necropsy
same,mortality,SD rats [1]; 6 male SD rats,Four of 6 animals receiving 1000 mg/kg/day died by day 5
same,inhibition of hERG potassium currents,hERG K+ channel,approximately 24%
same,concentration at 8 h,"[2]; both sexes, blood, Day 1, 8 h post-dose",< 0.1 ng/mL
same,concentration at 12 h,"[2]; both sexes, blood, Day 1, 12 h post-dose",< 0.1 ng/mL
same,NM,"[2]; Day 1, 0 h post-dose",< 0.100 ng/mL
same,NM,"[2]; Day 1, 0.5 h post-dose",< 0.100 ng/mL
same,NM,"[2]; Day 1, 1 h post-dose, listed as NM, dimethanesulfonate",< 0.100 ng/mL (4×) and 0.125 ng/mL
same,NM,"[2]; Day 1, 2 h post-dose",< 0.100 ng/mL
same,NM,"[2]; Day 1, 3 h post-dose",< 0.100 ng/mL
same,NM,"[2]; Day 1, 4 h post-dose",< 0.100 ng/mL
same,NM,"[2]; Day 1, 6 h post-dose",< 0.100 ng/mL
same,NM,"[2]; Day 1, 8 h post-dose",< 0.100 ng/mL
same,NM,"[2]; Day 1, 12 h post-dose",< 0.100 ng/mL
same,NM,"[2]; Day 2, 0 h post-dose",< 0.100 ng/mL
same,NM,"[2]; Day 2, 0.5 h post-dose",< 0.100 ng/mL
same,NM,"[2]; Day 2, 1 h post-dose",< 0.100 ng/mL
same,NM,"[2]; Day 2, 2 h post-dose",< 0.100 ng/mL
same,NM,"[2]; Day 2, 3 h post-dose",< 0.100 ng/mL
same,NM,"[2]; Day 2, 4 h post-dose",< 0.100 ng/mL
same,NM,"[2]; Day 2, 6 h post-dose",< 0.100 ng/mL
same,NM,"[2]; Day 2, 8 h post-dose",< 0.100 ng/mL
same,NM,"[2]; Day 2, 12 h post-dose",< 0.100 ng/mL
same,NM,"[2]; Day 2, 16 h post-dose",< 0.100 ng/mL
same,NM,"[2]; Day 3, 0 h post-dose",< 0.100 ng/mL
same,NM,"[2]; Day 3, 4 h post-dose, listed as NM, dimethanesulfonate",< 0.100 ng/mL (2×) and 0.101 ng/mL
same,NM,"[2]; Day 3, 8 h post-dose",< 0.100 ng/mL
same,NM,"[2]; Day 3, 12 h post-dose",< 0.100 ng/mL
same,NM,"[2]; Day 3, 16 h post-dose",< 0.100 ng/mL
same,NM,"[2]; Day 4, 0 h post-dose, listed as NM, dimethanesulfonate",< 0.100 ng/mL
same,NM,"[2]; Day 4, 4 h post-dose",< 0.100 ng/mL
same,mortality,"SD rats [3]; 1000 mg/kg female dose group, stomach perforations at necropsy indicate dosing misadministration",2 of 3 animals died at 48 hours
same,single dose oral tolerability,"SD rats [3]; both, SD, rat, in vivo, po, 7 days",≥ 1000 mg/kg
